Assays:
Assay in all cases: fluorescence polarization competition with fluorescent BOP probe
Type in all cases: binding
integrin α3β1 = biological target: T1, integrin α3β1 (Homo sapiens, UniProt P05556+P26006)
T1 construct: gene ITGA3; purchased recombinant heterodimer (R&D Systems), extracellular domains

[1] = biological target: T2, integrin α10β1 ectodomain (Homo sapiens, UniProt O75578+P05556)
T2 construct: gene ITGA10; ectodomain heterodimer; continuous transcript alpha-GGGS-P2A-beta; alpha with ACID coil and C-terminal StrepII tag, beta with BASE coil and His tag; Expi293 cells; beta1 borders printed for the separate vector
T2 sequence (O75578 23-1120): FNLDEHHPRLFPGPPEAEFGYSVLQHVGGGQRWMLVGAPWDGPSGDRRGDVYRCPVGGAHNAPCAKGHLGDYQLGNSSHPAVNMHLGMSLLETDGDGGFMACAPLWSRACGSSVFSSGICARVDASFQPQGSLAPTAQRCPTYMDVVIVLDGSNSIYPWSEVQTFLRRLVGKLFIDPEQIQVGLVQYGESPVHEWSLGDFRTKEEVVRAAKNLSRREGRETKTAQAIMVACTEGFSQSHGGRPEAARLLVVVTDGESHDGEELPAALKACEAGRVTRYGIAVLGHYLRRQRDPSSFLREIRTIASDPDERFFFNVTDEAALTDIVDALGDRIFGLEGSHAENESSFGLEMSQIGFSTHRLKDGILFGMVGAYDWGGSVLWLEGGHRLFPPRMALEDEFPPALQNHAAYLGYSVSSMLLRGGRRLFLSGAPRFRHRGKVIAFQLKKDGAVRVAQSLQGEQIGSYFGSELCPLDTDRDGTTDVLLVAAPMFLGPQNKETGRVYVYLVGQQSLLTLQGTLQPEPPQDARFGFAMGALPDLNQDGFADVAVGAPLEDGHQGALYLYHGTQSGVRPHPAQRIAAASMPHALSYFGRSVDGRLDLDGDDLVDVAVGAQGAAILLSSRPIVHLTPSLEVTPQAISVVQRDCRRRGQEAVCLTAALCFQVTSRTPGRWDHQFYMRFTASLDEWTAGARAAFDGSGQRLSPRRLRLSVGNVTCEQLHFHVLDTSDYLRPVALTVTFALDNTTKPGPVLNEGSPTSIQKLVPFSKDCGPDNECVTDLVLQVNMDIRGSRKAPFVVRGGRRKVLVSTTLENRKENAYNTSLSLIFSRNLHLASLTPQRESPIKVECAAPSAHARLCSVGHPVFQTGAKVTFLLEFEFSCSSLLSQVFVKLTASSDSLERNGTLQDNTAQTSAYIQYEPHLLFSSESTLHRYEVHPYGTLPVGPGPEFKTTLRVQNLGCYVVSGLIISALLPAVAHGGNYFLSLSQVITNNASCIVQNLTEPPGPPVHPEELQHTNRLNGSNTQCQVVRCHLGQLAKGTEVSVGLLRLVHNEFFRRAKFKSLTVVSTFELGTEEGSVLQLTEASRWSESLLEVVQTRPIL
T2 sequence (P05556 21-728): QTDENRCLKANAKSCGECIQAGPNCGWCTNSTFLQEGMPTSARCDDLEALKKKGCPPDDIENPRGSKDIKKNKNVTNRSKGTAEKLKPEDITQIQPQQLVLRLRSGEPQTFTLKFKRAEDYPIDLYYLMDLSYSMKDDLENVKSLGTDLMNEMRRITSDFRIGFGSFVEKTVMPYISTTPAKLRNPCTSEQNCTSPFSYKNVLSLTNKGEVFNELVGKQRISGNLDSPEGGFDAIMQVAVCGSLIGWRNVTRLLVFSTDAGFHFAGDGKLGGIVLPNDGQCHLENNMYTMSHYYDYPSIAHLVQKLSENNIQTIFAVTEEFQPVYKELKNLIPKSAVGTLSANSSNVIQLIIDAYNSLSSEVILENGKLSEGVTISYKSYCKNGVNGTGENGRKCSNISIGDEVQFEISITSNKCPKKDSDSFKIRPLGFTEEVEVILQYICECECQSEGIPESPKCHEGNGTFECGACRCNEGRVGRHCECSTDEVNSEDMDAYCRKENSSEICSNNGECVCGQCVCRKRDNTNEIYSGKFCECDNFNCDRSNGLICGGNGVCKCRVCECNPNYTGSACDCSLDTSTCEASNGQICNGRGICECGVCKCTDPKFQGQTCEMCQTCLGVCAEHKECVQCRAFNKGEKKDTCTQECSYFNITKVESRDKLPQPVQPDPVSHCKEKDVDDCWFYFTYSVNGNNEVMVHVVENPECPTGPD

[2] = biological target: T3, integrin α11β1 ectodomain (Homo sapiens, UniProt P05556+Q9UKX5)
T3 construct: gene ITGA11; ectodomain heterodimer; continuous transcript alpha-GGGS-P2A-beta; alpha with ACID coil and C-terminal StrepII tag, beta with BASE coil and His tag; Expi293 cells; beta1 borders printed for the separate vector
T3 sequence (Q9UKX5 23-1139): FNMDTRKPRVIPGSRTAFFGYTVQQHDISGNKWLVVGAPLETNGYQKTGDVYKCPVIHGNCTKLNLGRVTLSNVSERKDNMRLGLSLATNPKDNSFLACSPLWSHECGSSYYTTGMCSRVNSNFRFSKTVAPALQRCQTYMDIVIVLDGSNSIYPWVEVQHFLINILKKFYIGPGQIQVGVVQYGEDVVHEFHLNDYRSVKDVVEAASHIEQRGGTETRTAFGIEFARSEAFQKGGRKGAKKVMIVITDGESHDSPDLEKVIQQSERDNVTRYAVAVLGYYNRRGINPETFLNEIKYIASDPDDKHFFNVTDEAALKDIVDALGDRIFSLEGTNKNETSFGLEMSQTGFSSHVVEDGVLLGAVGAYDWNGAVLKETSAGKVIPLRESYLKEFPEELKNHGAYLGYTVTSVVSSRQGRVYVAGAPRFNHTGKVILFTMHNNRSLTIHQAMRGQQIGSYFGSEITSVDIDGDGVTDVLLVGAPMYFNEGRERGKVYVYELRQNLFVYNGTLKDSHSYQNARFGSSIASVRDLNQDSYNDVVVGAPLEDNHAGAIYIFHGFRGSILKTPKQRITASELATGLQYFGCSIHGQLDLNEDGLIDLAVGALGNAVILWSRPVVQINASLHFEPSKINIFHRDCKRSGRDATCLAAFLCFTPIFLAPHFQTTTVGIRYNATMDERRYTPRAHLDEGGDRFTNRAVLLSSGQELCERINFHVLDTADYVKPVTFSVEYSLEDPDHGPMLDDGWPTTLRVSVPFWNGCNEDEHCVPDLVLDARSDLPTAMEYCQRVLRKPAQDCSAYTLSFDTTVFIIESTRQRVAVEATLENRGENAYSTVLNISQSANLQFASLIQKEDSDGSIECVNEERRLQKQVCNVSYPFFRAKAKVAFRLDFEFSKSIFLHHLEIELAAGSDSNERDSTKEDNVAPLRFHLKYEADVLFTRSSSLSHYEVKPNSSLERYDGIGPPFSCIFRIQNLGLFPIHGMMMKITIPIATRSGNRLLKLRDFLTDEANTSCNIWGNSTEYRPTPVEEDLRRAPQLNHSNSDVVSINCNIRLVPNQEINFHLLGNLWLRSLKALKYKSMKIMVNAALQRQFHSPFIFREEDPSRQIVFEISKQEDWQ
T3 sequence (P05556 21-728): as the sequence (P05556 21-728) above

integrin α2β1 ectodomain = biological target: T4, integrin α2β1 ectodomain (Homo sapiens, UniProt P05556+P17301)
T4 construct: gene ITGA2; ectodomain heterodimer; alpha with ACID coil and C-terminal StrepII tag, beta with BASE coil and His tag; Expi293 cells, separate pcDNA3.4 vectors
T4 sequence (P17301 30-1129): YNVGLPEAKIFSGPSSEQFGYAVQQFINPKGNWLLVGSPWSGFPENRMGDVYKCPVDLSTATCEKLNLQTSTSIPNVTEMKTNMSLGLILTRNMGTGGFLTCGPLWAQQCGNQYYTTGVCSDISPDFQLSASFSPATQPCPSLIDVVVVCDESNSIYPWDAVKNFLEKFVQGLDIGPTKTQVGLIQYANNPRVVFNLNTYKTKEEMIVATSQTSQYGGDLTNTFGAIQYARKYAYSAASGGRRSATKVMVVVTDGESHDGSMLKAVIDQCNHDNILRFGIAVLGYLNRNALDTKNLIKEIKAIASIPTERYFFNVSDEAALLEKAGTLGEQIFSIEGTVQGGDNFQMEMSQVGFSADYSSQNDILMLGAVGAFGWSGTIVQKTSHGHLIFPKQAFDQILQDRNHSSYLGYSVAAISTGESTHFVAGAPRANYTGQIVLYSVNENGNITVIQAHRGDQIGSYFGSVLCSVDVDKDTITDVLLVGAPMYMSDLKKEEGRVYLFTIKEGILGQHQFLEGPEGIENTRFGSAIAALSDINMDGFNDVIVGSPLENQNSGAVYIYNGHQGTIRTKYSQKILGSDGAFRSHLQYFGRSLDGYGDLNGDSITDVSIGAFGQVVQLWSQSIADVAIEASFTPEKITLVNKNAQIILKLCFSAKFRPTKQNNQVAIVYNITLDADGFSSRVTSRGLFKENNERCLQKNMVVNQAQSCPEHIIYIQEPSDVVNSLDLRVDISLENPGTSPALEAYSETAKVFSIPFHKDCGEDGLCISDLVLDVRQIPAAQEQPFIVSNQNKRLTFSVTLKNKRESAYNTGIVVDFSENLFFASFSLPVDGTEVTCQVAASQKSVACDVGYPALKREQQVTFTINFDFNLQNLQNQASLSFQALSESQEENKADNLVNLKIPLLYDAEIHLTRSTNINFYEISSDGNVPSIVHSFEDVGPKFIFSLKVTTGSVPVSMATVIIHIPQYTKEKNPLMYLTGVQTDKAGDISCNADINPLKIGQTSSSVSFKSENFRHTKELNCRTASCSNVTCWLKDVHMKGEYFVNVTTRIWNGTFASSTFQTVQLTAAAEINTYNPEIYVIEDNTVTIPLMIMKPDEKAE
T4 sequence (P05556 21-728): as the sequence (P05556 21-728) above

integrin α1β1 ectodomain = biological target: T5, integrin α1β1 ectodomain (Homo sapiens, UniProt P05556+P56199)
T5 construct: gene ITGA1; ectodomain heterodimer; alpha with ACID coil and C-terminal StrepII tag, beta with BASE coil and His tag; Expi293 cells, separate pcDNA3.4 vectors

O=C(O)[C@H](Cc1ccc(OC(=O)N2CCCC2)cc1)NC(=O)[C@@H]1CCCN1S(=O)(=O)c1ccccc1 [BOP, N-(Benzenesulfonyl)-L-prolyl-L-O-(1-pyrrolidinylcarbonyl)tyrosine] showed an IC50 (integrin α3β1) of 0.0312 µM, an IC50 [1] of 0.0253 µM and an IC50 [2] of 0.118 µM. The IC50 (integrin α2β1 ectodomain) was 0.0162 µM and the IC50 (integrin α1β1 ectodomain) was 0.0807 µM.

Reference: publication PMC10404678, “A recombinant technique for mapping functional sites of heterotrimeric collagen helices: Collagen IV CB3 fragment as a prototype for integrin binding” (The Journal of Biological Chemistry, 2023)
